Data on 26 compounds can be found in ChEMBL document CHEMBL3352793, “Discovery of pyrrolo-benzo-1,4-diazines as potent Na(v)1.7 sodium channel blockers” (Bioorg Med Chem Lett, 2014).

Series [1] is described as follows: in vivo. As to conditions: rat, po, 10 mg/kg.
For series [2], the species on record is Rattus norvegicus. The conditions noted are these: in vivo, po, 10 mg/kg, 6 h.
A short description of series [3]: Tmax in rat at 10 mg/kg, po. The class given is ADME, organism-based. More on the design: dose 10 mg/kg, route oral. As to conditions: in vivo.
A short description of series [4]: Mean residence time in rat at 3 mg/kg, iv. The class given is ADME, organism-based. More on the design: dose 3 mg/kg, route intravenous. As to conditions: in vivo.
A short description of series [5]: AUC (0 to 24 hrs) in rat at 10 mg/kg, po. Format: ADME, organism-based. More on the design: time < 24 hr, dose 10 mg/kg, route oral. As to conditions: plasma.
Series [6] in a line: Terminal half life in rat at 3 mg/kg, iv. More on the design: dose 3 mg/kg, route intravenous. The conditions noted are these: in vivo, read-out: beta t1/2 (converted). The class given is ADME, organism-based.
The nature of series [7]: Oral bioavailability in rat at 10 mg/kg. The class given is ADME, organism-based. The conditions noted are these: in vivo.
Series [8] is described as follows: Mean residence time in rat at 10 mg/kg, po. Details: dose 10 mg/kg, route oral. Format: ADME, organism-based. As to conditions: in vivo.
Series [9] can be described thus: Volume of distribution at steady state in rat at 3 mg/kg, iv. Format: ADME, organism-based. Details: dose 3 mg/kg, route intravenous. As to conditions: in vivo, read-out: Vdss.
Series [10] in a line: Clearance in rat at 3 mg/kg, iv. The class given is ADME, organism-based. Details: dose 3 mg/kg, route intravenous. The conditions noted are these: in vivo.
Series [11] can be described thus: AUC (0 to 24 hrs) in rat at 3 mg/kg, iv. As to conditions: plasma. The class given is ADME, organism-based. More on the design: time < 24 hr, dose 3 mg/kg, route intravenous.
The test system of series [12] is Brain. Nature of the series: Drug uptake in rat brain at 10 mg/kg, po. More on the design: dose 10 mg/kg, route oral. The class given is ADME, organism-based. As to conditions: in vivo.
Series [13] in a line: Cmax in rat at 10 mg/kg, po. Format: ADME, organism-based. Details: dose 10 mg/kg, route oral. The conditions noted are these: in vivo.

With `COc1ccc2c(c1)NC1(CCN(C(=O)c3ccc(N(C)C)c(Cl)c3)CC1)c1cccn1-2`, the AUC(0-t) at 6 h in series [1] (in vivo) amounted to 1.27 µM·h.

In turn, `COc1ccc2c(c1)NC1(CCN(C(=O)c3cc(C)cc(C)c3)CC1)c1cccn1-2` gave an exposure AUC(0-t) at 6 h in series [1] (in vivo) of 0.788 µM·h. The compound `COc1ccc2c(c1)NC1(CCN(C(=O)OCc3ccccc3)CC1)c1cccn1-2` displayed an AUC(0-t) at 6 h in [1] (in vivo) of 13.1 µM·h. On to `COc1ccc2c(c1)NC1(CCN(C(=O)c3ccc(C#N)c(OC)c3)CC1)c1cccn1-2`, for which, in series [1] (in vivo), the AUC(0-t) at 6 h was found to be 26.6 µM·h. Consider `COc1ccc2c(c1)NC1(CCN(Cc3ccccc3)CC1)c1cccn1-2`, for which, in series [1] (in vivo), the AUC(0-t) at 6 h is 0.37 µM·h. This AUC(0-t) at 6 h lies about 72-fold lower than the previous one. For `N#Cc1ccc(C(=O)N2CCC3(CC2)Nc2ccc(Br)cc2-n2cccc23)cc1`, the AUC(0-t) at 6 h in series [1] (in vivo) is 23.4 µM·h. In series [1] (in vivo), `COc1ccc2c(c1)NC1(CCN(C(=O)c3cccc(C#N)c3)CC1)c1cccn1-2` had an AUC(0-t) at 6 h of 0.783 µM·h. Take `Cc1cc(C)cc(C(=O)N2CCC3(CC2)Nc2ccccc2-n2cccc23)c1`: in series [2], the AUC came out at 0 µM·h. As for `COc1ccc2c(c1)NC1(CCN(C(=O)c3cccc(C)c3)CC1)c1cccn1-2`, in series [2], the AUC was determined as 0 µM·h. In the case of `COc1ccc2c(c1)NC1(CCN(C(=O)c3ccc(C)cc3)CC1)c1cccn1-2`, in series [1] (in vivo), the AUC(0-t) at 6 h was found to be 17.2 µM·h. The same measure, in the same setting: in the case of `COc1ccc2c(c1)NC1(CCN(C(=O)c3ccc(N(C)C)cc3)CC1)c1cccn1-2` it was 9.44 µM·h. `COc1ccc2c(c1)NC1(CCN(C(=O)c3ccc(C#N)cc3)CC1)c1cccn1-2` showed an AUC(0-t) at 6 h in series [1] (in vivo) of 51.1 µM·h. As for `N#Cc1ccc(C(=O)N2CCC3(CC2)Nc2cc(OC(F)(F)F)ccc2-n2cccc23)cc1`, in series [1] (in vivo), the AUC(0-t) at 6 h was found to be 11.7 µM·h. This AUC(0-t) at 6 h is about 4.4-fold lower than that of the compound before. `COc1ccc2c(c1)NC1(CCN(C(=O)c3cccc(Cl)c3)CC1)c1cccn1-2` gave an AUC in [2] of 0 µM·h. `COc1ccc(C(=O)N2CCC3(CC2)Nc2cc(OC)ccc2-n2cccc23)cc1` yielded an AUC(0-t) at 6 h in [1] (in vivo) of 91.5 µM·h. In series [1] (in vivo), `CN(C)c1cccc(C(=O)N2CCC3(CC2)Nc2ccccc2-n2cccc23)c1` gave an AUC(0-t) at 6 h of 0.633 µM·h.

Consider `COc1cccc(C(=O)N2CCC3(CC2)Nc2cc(OC)ccc2-n2cccc23)c1`, for which, in [2], the AUC is 0 µM·h.

`N#Cc1ccc(C(=O)N2CCC3(CC2)Nc2ccc(Cl)cc2-n2cccc23)cc1` returned an AUC(0-t) at 6 h in [1] (in vivo) of 26.1 µM·h. `COc1ccc2c(c1)NC1(CCN(C(=O)c3ccc(OC)c(N(C)C)c3)CC1)c1cccn1-2`: the Tmax in series [3] is 1.3 h. The values for the MRT in [4] and in [8] were 3 h and 4.7 h, respectively. The figures for the area under the curve AUC(0-t) at 24 h in series [5] and in series [11] were 65.9 µM·h and 17.4 µM·h, respectively. Also, the half-life in series [6] was 2.9 h. This compound also yielded a bioavailability in [7] of 100%. Besides, the Vd in series [9] was 1.2 L/kg. The compound also yielded a clearance in [10] of 6.5 mL/min/kg. In series [12], the Drug uptake came out at 257 ng/g. In series [13], this compound had a Cmax of 9.3 µM. In series [1] (plasma), this compound displayed an AUC(0-t) at 6 h of 20.3 µM·h.

In turn, `N#Cc1ccc(C(=O)N2CCC3(CC2)Nc2cc(C(F)(F)F)ccc2-n2cccc23)cc1` registered an AUC(0-t) at 6 h in series [1] (in vivo) of 15.2 µM·h. On the same count and under the same terms, in the case of `COc1ccc2c(c1)NC1(CCN(C(=O)c3ccc(OC)c(Cl)c3)CC1)c1cccn1-2` it was 6.81 µM·h; in that of `N#Cc1ccc(C(=O)N2CCC3(CC2)Nc2ccccc2-n2cccc23)cc1`, 1.01 µM·h. On the same count and under the same terms, in the case of `COc1ccc2c(c1)NC1(CCN(C(=O)c3ccc(Cl)cc3)CC1)c1cccn1-2` it was 1.96 µM·h; in that of `N#Cc1ccc(C(=O)N2CCC3(CC2)Nc2cc(Cl)ccc2-n2cccc23)cc1`, 2.9 µM·h. The compound `COc1ccc2c(c1)NC1(CCN(C(=O)c3ccccc3OC)CC1)c1cccn1-2` displayed an AUC in series [2] of 0 µM·h. In turn, `N#Cc1ccc(C(=O)N2CCC3(CC2)Nc2ccc(F)cc2-n2cccc23)cc1` gave an AUC(0-t) at 6 h in [1] (in vivo) of 12 µM·h.

The AUC(0-t) is the area under the concentration-time curve up to a stated or last time point. By AUC is commonly meant concentration integrated over time. High values mean more exposure, low ones less exposure. One may read the Tmax as the time at which the peak concentration occurs. Broadly, the MRT is a mean duration of stay, worked out from the concentration-time curve. For orientation: bioavailability means the share of a dose that reaches the circulation, judged against a reference dose that is usually intravenous. A higher bioavailability goes with much systemic uptake. As usually defined, the clearance is the rate of elimination divided by the concentration. For orientation: Cmax means the peak of the concentration-time curve.
